Assay results published in paper PMC6200933, “Identification of a Kdn biosynthesis pathway in the haptophyte Prymnesium parvum suggests widespread sialic acid biosynthesis among microalgae” (The Journal of Biological Chemistry, 2018).
Where two headings read alike, the source gives them in different places. Values belong to the molecule of their own block, whether it stands above or below them.

Key:
[1] = tested on: T1, Kdn-9-P synthetase (CAMPEP_0191217894); test: BioMol Green colorimetric phosphate-release assay, Michaelis-Menten; format: biochemical, Prymnesium parvum; settings: 50 mM HEPES pH 7.5, 2 mM MgCl2, 25 °C
T1 construct: no truncation stated

[2] = biological target: T2, B. thetaiotaomicron VPI-5482 Kdn-9-P phosphatase (Bacteroides thetaiotaomicron, UniProt Q8A712); test: […] NMR coupled assay, Kdn-9-P generated in situ by P. parvum Kdn-9-P synthetase; format: biochemical; settings: coupled with Kdn-9-P synthetase, 10 mM PEP, 8 mM Man-6-P, 2 mM MgCl2, 50 mM HEPES pD 7.5, 1 h
T2 construct: gene BT_1713
T2 sequence (Q8A712 whole entry, change not shown): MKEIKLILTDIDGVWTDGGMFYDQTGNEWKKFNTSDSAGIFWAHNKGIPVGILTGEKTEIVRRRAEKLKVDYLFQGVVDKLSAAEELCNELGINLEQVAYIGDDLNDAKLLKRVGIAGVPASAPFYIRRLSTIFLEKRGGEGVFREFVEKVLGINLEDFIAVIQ

Km ([1]; 100 μM Man-6-P, read-out: (PEP)Km): 18.3 ± 1.8 µM
Structure (SMILES): C=C(OP(=O)(O)O)C(=O)O [PEP]

Structure (SMILES): O=C(O)C1(O)C[C@H](O)[C@@H](O)[C@H]([C@H](O)[C@H](O)COP(=O)(O)O)O1 (stereo partly drawn) [Kdn-9-P]
31P NMR coupled assay, Kdn-9-P generated in situ by P. parvum Kdn-9-P synthetase [2]: is accepted by B. thetaiotaomicron VPI-5482 Kdn-9-P phosphatase

Km ([1]; 100 μM PEP, read-out: (Man-6-P)Km): 63.6 ± 10.5 µM
Structure (SMILES): O=P(O)(O)OC[C@H]1OC(O)[C@@H](O)[C@@H](O)[C@@H]1O (stereo partly drawn) [Man-6-P]
